Entries after “also recorded” stand apart in the source; their conditions may differ.
Legend:
[1] = tested on: C4-2 castration-resistant prostate cells; experiment: C4-2 castration-resistant prostate cancer cell growth; format: cell-based; details: 72 hours, androgen-depleted conditions
Protocol: The effect of GS27 on castration-resistant prostate cancer cells was evaluated, alone and in combination with enzalutamide (ENZ). Enzalutamide (XTANDI; Astellas Pharma), is an androgen receptor inhibitor used for treatment of patients with prostate cancer. In a further study, the effect of G27 in combination with ENZ on castration-resistant prostate cancer cells was compared to combination treatment of NDI-091143 with ENZ.
C4-2 Castration-resistant prostate cells cultured in androgen-depleted conditions were treated with 1 μM of GS27, in the presence or absence of 10 μM of enzalutamide (ENZ) for 72 hours.
C4-2 castration-resistant prostate cells cultured in androgen-depleted conditions were treated with 1 μM of GS27 or NDI-091143, in the presence of 10 μM of enzalutamide (ENZ) for 72 hours.

[2] = tested on: AsPC-1 pancreatic cancer tumor; experiment: AsPC-1 xenograft mouse model; format: in vivo, NOD/SCID mice; details: 100 mg/kg i.p. daily for 5 days
Protocol: The effect of GS27 on pancreatic cancer tumor growth in mice was evaluated in a AsPC-1 xenograft mouse model.
Xenograft tumors were generated by injecting AsPC-1 pancreatic cancer cells (0.5×10^6) into the right flank of male NOD/SCID mice (n=5/group). All mice developed tumors in 10 days with size of approximately 100 mm3. For each experiment, mice were randomly distributed into equal groups (5 mice per group) that were untreated or treated by intraperitoneal injections daily for 5 days with 100 mg/kg GS27. Tumor volume (average, SD) and the weight of the animals were evaluated until 24 days post-treatment.

in vivo = details: female, NOD SCID (NOD.CB17-Prkdc^scid/J), mouse, ip
Description: The guidelines of the NCI DTP (National Cancer Institute, Developmental Therapeutics Program, NIH, USA) for acute toxicity testing (DOI: 10.1021/acs.biomac.8b00959) were followed to determine Maximum Tolerated Dose (MTD) of GS27.
For the MTD studies, NOD.CB 17-Prkdc^scid/J mice (also known as NOD SCID mice) were used. All animals for in vivo experiments were kept under specific pathogen-free (SPF) conditions in Type II Long cages, at the experimental unit of our department (Department of Pharmacology, EL42-BIO_Exp03, protocol license 5542/22806-30/11/2015) in a climate-regulated environment (21±1° C.; 50-55% relative humidity) under a 12 h/12 h (lights on at 7:00 AM) light/dark cycle and allowed ad libitum food and water. Female and male mice, 6-8 weeks old, were used in the studies described here. GS27 compound was administered to 15 female mice at two different doses. GS at either 100 or 50 mg/kg was administered in a single dose via i.p. injection in pre-weighed mice. One group of five mice received the carrier and served as controls. […] Mice were also weighed twice weekly for two weeks.

p70 S6 (T389) = experiment: ELISA of p70 S6 (T389) in PANC-1 cells; format: cell-based, human; details: rIGF1, 5 μM, 24 hours
Protocol: ELISA assay was used to evaluate the effect of GS compounds on protein activity levels in PANC-1 cancer cells. PANC-1 cells were serum-starved overnight and then treated with rIGF1 (100 ng/mL) for 24 hours, with or without GS27 (5 μM). The levels of the following proteins were evaluated by ELISA assay: a) p70 S6 (T389) (cat no. 54164C, Cell Signaling); b) pAKT (S473), (cat no. 80895, Cell Signaling); c) pACLY (S455), (cat no. okag1672, Avivasysbio); d) pAMPK (T172) (cat no. 7959C, Cell Signaling) and e) p65/NFKB (S536), (cat no. 7173, Cell Signaling).
PANC-1 is a human pancreatic ductal adenocarcinoma cell line derived from the carcinoma of a person.
The molecular mechanism of action of GS27, a compound that has exerted potent anti-cancer activity in different cancer cell lines including pancreatic cancer cells, was investigated. Oleacein has been implicated to have anti-inflammatory and metabolic effects, thus the potential effects of GS27 in different metabolic and inflammatory pathways were evaluated. Specifically, the protein levels of p70 S6 (T389), pAKT (S473), pACLY (S455), pAMPK (T172) and p65/NFKB (S536) were evaluated by ELISA assay in PANC-1 pancreatic cancer cells treated with 5 μM GS27. GS27 reduced p70 S6 and AKT phosphorylation levels, while it increased AMPK phosphorylation.

IL-6 = experiment: ELISA of IL-6 in PMA/LPS-treated THP-1 cells; format: cell-based, human; details: THP-1, PMA then LPS 100 ng/ml 24 hours, 5 uM compound added 2 hours before LPS
Protocol: (§1) Human monocytes (THP-1, ATCC) were cultured in RPMI 1640 media supplemented with HEPES buffer (10 mM), sodium pyruvate (1 mM), glucose (4.5 g/L), fetal bovine serum (10%), penicillin (100 U/mL), streptomycin (100 μg/mL), and 2-mercaptoethanol (0.05 mM). THP-1 cells were treated with PMA (100 ng/ml) for 48 hours and then washed and rested for 24 hours in PMA-free media. These cells were treated with LPS (100 ng/ml) for 24 hours in the presence or absence of 5 uM of […] compounds (added 2 hours before LPS). Cell culture supernatants were collected and IL-1β (cat. No DLB50, R&D Systems), TNF-α (cat. no. DTA00D, R&D Systems) and IL-6 (cat. No D6050, R&D Systems) protein levels were evaluated by ELISA assay.

IL-1β = experiment: ELISA of IL-1β in PMA/LPS-treated THP-1 cells; format: cell-based, human; details: THP-1, PMA then LPS 100 ng/ml 24 hours, 5 uM compound added 2 hours before LPS
Protocol: as §1

**Q.** For `C/C=C(/C=O)[C@@H](CC=O)CC(=O)SCCc1ccccc1` [GS27, S-phenethyl (3S,4E)-4-formyl-3-(2-oxoethyl)hex-4-enethioate], which “growth of C4-2 prostate cancer cells, combination with enzalutamide” value ([1]; 1 μM plus 10 μM enzalutamide) is on record?
**A.** Its value is “substantial additive effect; also recorded: more effective than NDI-091143 and enzalutamide”.

**Q.** What about the “growth of C4-2 prostate cancer cells, compound alone” value ([1]; 1 μM) of the same molecule?
**A.** The value was “inhibited the growth”.

**Q.** And the “weight of the mice” value [2]?
**A.** Its value is “did not affect”.

**Q.** And the “inhibition of AsPC-1 pancreatic cancer tumor growth” value ([2]; until 24 days post-treatment)?
**A.** The value was 34%.

**Q.** And the MTD at 2 weeks (in vivo)?
**A.** Its MTD at 2 weeks is greater than 200 mg/kg.

**Q.** And the “dose well tolerated for two weeks” value (in vivo; 2 weeks)?
**A.** The value was “up to 100 mg/kg”.

**Q.** What about the “p70 S6 phosphorylation levels” value (p70 S6 (T389)) of the same molecule?
**A.** Its value is “reduced”.

**Q.** For `C/C=C(/C=O)[C@@H](CC=O)CC(=O)OCCOc1ccccc1` [GS24, (3S,4E)-4-formyl-3-(2-oxoethyl)-4-hexenoic acid 2-phenoxyethyl ester], which IL-6 protein levels (IL-6) is on record?
**A.** Its IL-6 protein levels is “effective for reducing”.

**Q.** What about the IL-1β protein levels (IL-1β) of the same molecule?
**A.** The IL-1β protein levels was “more effectively reduced”.
